How the values were obtained:
human recombinant PFKFB4 = human recombinant PFKFB4 (Homo sapiens, UniProt Q16877); test: fructose-6-phosphate kinase activity of human recombinant PFKFB4 (in vitro kinase assay); type: biochemical
Procedure: Kinase assays: The fructose-6-phosphate kinase activity of human recombinant PFKFB4 in the presence of DMSO±indicated 5MPN concentrations was assayed as previously described. The activity of 5MPN against 97 kinases was examined using a commercially available active-site dependent competition binding assay core service (KINOMEscanEDGE) that quantifies the capacity of lest agents to compete with an immobilized, active-site directed ligand using a DNA-tagged kinase and immobilized ligand and compound. For example, enzyme inhibition was studies using a ADP-Glo assay. […] ADP is converted into ATP, which is converted into light by a luciferase.

PFKFB3 = PFKFB3 (Homo sapiens, UniProt Q16875); test: kinase activity of PFKFB3; type: biochemical; details: 10 μM
H460 cells [1] = test: F2,6BP measurements in H460 cells; type: cell-based, human
Procedure: F2,6BP measurements: Cells or tissues were prepared as previously described and F2,6BP content measured using a coupled enzyme reaction following the method of Van Schaftingen et at (Van Schaftingen E et al. A kinetic study of pyrophosphate: fructose-6-phosphate phosphotransferase from potato tubers. Application to a microassay of fructose 2,6-bisphosphate. Eur J Biochem 1982 December; 129(1): 191-5) and normalized to total cellular protein measured by the bicinchoninic acid assay (BCA, Thermo Scientific). […] In order to measure F2,6BP, cells were harvested, washed with PBS, lysed in NaOH/Tris acetate by heating at 80° C. and lysates neutralized to pH 7.2. F2,6BP content was measured using a coupled enzyme reaction following the method of Van Schaftingen et al (Eur J Biochem. 1982; 129(1): 191-195). The F2,6BP concentration was normalized to total cellular protein measured by the bicinchoninic acid assay (BCA, Thermo Scientific) All data are expressed as the mean±SD of three experiments. Statistical significance was assessed by the two-sample t test (independent variable).

H460 cells [2] = test: proliferation / viable cell count (trypan blue) of H460 cells; type: cell-based, human
Procedure: Cell Viability: Cells were incubated in 20% trypan blue (Sigma) for 5 minutes. Cells excluding trypan blue were counted using a standard hemocytometer (Hausser Scientific) to determine total numbers of viable cells. Data are expressed as mean±SD of three experiments. Proliferation Assays: H460 non-small cell lung cancer cells were plated in 24 well plates and exposed to increasing concentrations of the indicated inhibitors of Formula IV (FBR1-02 corresponds to [drawing 47] DMSO was used as vehicle. After 24, 48 and 72 hours of exposure, cells were detached and viable cells were counted by Trypan blue exclusion (representative counts at 48 hours shown).

H441 = test: viable cell count of H441 cells; type: cell-based; details: H441, 48 hours
Procedure: (§1) Cell Viability: Cells were incubated in 20% trypan blue (Sigma) for 5 minutes. Cells excluding trypan blue were counted using a standard hemocytometer (Hausser Scientific) to determine total numbers of viable cells. Data are expressed as mean±SD of three experiments.

H522 = test: viable cell count of H522 cells; type: cell-based; details: H522, 48 hours
Procedure: as §1

A549 = test: viable cell count of A549 cells; type: cell-based; details: A549, 48 hours
Procedure: as §1

LNCaP = test: viable cell count of LNCaP cells; type: cell-based; details: 48 hours
Procedure: as §1

H460 cells [3] = test: cell cycle analysis by flow cytometry in H460 cells; type: cell-based, human
Procedure: (§2) Flow Cytometry: To measure apoptosis, cells were stained with annexin V and propidium iodide and examined as previously described. […] DMSO used as vehicle. For cell cycle experiments, cells were detached, washed with cold PBS and fixed in 70% ethanol (4° C. 30 minutes). The cells then were pelleted by centrifugation, resuspended in PBS containing PI and RNase A, incubated at 37° C. in the dark for 30 minutes and analyzed by flow cytometry (BD FACSCalibur). Data were analyzed using FlowJo software (TREE STAR Inc.). Results were calculated as the mean±SD of three experiments.

LLC cells = test: in vitro cell cycle analysis of LLC cells; type: cell-based; details: 10 μM 5MPN
Procedure: as §2

[4] = pharmacokinetic profile of 5MPN after IV and oral administration; type: in vivo; details: C57BL/6 mice
Procedure: In vivo Studies. The pharmacokinetic profile was determined in female C57BL/6 mice following IV and oral administration of 5MPN. Using only female mice lowered the animal numbers required for meaningful results without issues of potential gender differences in exposure. Eight time points (n=3/time point) were used to determine PK parameters calculated using WinNonLin v5.0. Plasma samples were extracted using acetonitrile and analyzed by LC/MS-MS using a PhenomexSynergi Polar-RP 4 micron 50×2.0 mm column eluted with a biphasic mobile phase (0.5% formic acid in acetonitrile and water).

LLC xenografts = test: FDG uptake by micro-positron emission tomography in tumor-bearing mice; type: in vivo; details: 120 mg/kg by gavage, once
Procedure: At the end of the experiment, animals were euthanized, tumors removed and sections fixed in 10% formaldehyde for immunohistochemistry or snap-frozen in liquid nitrogen for analyses. Subsets of tumor-bearing mice (n=3) were injected i.p. with 2-[^18F]-fluoro-2-deoxyglucose (FDG, 150 μCi, 100 μl) and imaged by micro-positron emission tomography as previously described. Regions of interest in the tumors and cerebellum were quantified in quadruplicate and expressed as the mean±SD of the tumor:cerebellar FDG uptake ratio. Animal experiments were approved by the University of Louisville Institutional Animal Care and Use Committee.

[5] = H460 transfected with PFKFB4, 10 μM 5MPN, 24 hours

Chain of human recombinant PFKFB4 (Q16877 whole entry): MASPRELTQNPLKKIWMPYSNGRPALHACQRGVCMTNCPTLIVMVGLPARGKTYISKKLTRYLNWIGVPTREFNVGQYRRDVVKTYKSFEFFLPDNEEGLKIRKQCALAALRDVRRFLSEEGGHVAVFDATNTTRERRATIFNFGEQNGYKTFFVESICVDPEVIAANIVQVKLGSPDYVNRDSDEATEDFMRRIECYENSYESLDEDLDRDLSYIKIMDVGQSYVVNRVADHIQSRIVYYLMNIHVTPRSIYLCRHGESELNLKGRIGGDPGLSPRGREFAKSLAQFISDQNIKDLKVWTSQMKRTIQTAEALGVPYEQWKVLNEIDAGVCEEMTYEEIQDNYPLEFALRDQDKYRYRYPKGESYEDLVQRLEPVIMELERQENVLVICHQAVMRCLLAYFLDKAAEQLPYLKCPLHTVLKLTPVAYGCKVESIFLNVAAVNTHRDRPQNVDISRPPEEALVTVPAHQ
Chain of PFKFB3 (Q16875 whole entry, species assumed): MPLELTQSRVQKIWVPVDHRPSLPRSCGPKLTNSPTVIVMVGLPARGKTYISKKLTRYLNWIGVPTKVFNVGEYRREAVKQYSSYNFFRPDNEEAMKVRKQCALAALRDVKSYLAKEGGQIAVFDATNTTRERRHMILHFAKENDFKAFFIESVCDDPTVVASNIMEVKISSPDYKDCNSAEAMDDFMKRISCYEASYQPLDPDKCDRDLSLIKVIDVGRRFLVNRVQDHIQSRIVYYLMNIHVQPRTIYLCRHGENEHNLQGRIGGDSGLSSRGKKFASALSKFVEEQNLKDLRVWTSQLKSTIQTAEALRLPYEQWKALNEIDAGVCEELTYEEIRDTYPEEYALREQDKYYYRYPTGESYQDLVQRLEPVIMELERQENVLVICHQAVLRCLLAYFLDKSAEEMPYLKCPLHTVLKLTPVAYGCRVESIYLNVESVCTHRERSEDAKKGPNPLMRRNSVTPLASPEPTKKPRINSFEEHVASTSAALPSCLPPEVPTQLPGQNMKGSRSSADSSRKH

## COc1cccc2c(NCCCCCO[N+](=O)[O-])ccnc12 [5MPN, 5-[(8-methoxyquinolin-4-yl)amino]pentyl nitrate]
Human recombinant PFKFB4; 0, 0.1, 1 or 10 μM 5MPN, F6P 0-2000 μmol/L
  PFKFB4 activity (kinase activity of recombinant PFKFB4): significantly inhibited
Human recombinant PFKFB4; F6P binding site
  mode of inhibition, Lineweaver-Burk analyses: competitive inhibitor
PFKFB3
  inhibition of PFKFB3 kinase activity: no inhibition of kinase activity
H460 cells [1]; H460, 10 μM 5MPN, 6-72 hours
  intracellular concentration of F2,6BP: reduced
H460 cells [1]; [5]
  reduction in F2,6BP with over-expression of PFKFB4: reversed
H460 cells [2]; H460, 24-72 hours
  cell proliferation: reduction in cell proliferation
H460 cells [2]; H460, 48 hours
  growth, viable cells: dose-dependent reduction in growth
H460 cells [2]; [5]
  anti-proliferative effect with over-expression of PFKFB4: protected
H441
  growth, viable cells: dose-dependent reduction in growth
H522
  growth, viable cells: dose-dependent reduction in growth
A549
  growth, viable cells: dose-dependent reduction in growth
LNCaP
  growth, viable cells: dose-dependent reduction in growth
H460 cells [3]; H460, 10 μM 5MPN
  cell cycle distribution (G1, S, G2): marked G1 arrest
H460 cells [3]; [5]
  G1 arrest with over-expression of PFKFB4: reversed
LLC cells
  cell cycle arrest in LLC cells in vitro: G1 arrest
[4]
  oral bioavailability: High Oral Bioavailability
[4]; IV and oral
  pharmacokinetics of intravenous and oral administration: both routes were adequate to achieve potentially therapeutic concentrations
LLC xenografts
  2-[18F]-fluoro-2-deoxyglucose uptake, positron emission tomography: marked reduction
